Experiments:
[1] = test system: cerebellar granule neurons (CGNs); experiment: Neurotoxicity on primary cultures of cerebellar granule neurons (nuclei counting after Hoechst staining); conditions: differentiated CGNs, 24 h, percentage of healthy nuclei on total nuclei, mean ± SEM of three experiments
[2] = Compound stability in the PAMPA buffer solution; format: in vitro ADME; conditions: after 6h, donor and acceptor wells
From the text: Table S1. Prediction of BBB penetration of the studied compounds expressed as Pe ± SEM (n=3)

PAMPA-BBB assay = conditions: for Papp: pH 7.4; for BBB permeability prediction: PAMPA-BBB
From the text: Thus, to reduce attrition in the development process, the evaluation of BBB penetration at a very early drug discovery stage is of crucial importance. In light of this, the ability of the previously selected compounds to cross the BBB was predicted by a parallel artificial membrane permeability assay (PAMPA)-BBB,[41] a high-throughput technique widely used as an indicator of a molecule’s passive diffusion through the BBB. Six commercially available drugs were used to validate the assay.
PAMPA (the parallel artificial membrane permeability assay) is a high-throughput screening tool applicable for the prediction of the passive transport of potential drugs across the BBB.[41] In this study, it has been used as a non-cell-based in vitro assay carried out in a coated 96-well membrane filter. The filter membrane of the donor plate was coated with PBL (Polar Brain Lipid, Avanti) in dodecane (4 μL of 20 mg/mL PBL in dodecane) and the acceptor well was filled with 300 μL of phosphate buffer saline, (PBS pH 7.4; VA). The tested compounds were dissolved first in DMSO and then diluted with PBS pH 7.4 to reach the final concentrations of 50–500 μM in the donor well. […] Then, 300 μL of the donor solution (VD) was added to the donor wells and the donor filter plate was carefully put on the acceptor plate so that the coated membrane was “in touch” with both donor solution and acceptor buffer. In principle, the test compound diffuses from the donor well through the polar brain lipid membrane (area = 0.28 cm^2) to the acceptor well. The concentrations of the tested compound in both donor and the acceptor wells were assessed after 3, 4, 5, and 6 h of incubation in quadruplicate using a UV plate reader, Synergy HT (Biotek) at the maximum absorption wavelength of each compound (n=3). In addition to that, solution of the theoretical compound concentration, simulating the equilibrium state established if the membrane were ideally permeable, was prepared and assessed as well. The concentrations of the compounds in the donor and acceptor wells and the equilibrium concentration were calculated from the standard curve and expressed as the permeability (Pe) according to the equation[41] [drawing 1] where [drawing 2]

Tau protein = target: T1, Tau protein (Homo sapiens, UniProt P10636); experiment: Inhibition of Tau aggregation in intact E. coli cells overexpressing Tau (ThS fluorescence); format: cell-based, Escherichia coli; conditions: for % inhibition Tau aggregation @ 10 μM: intact E. coli cells, compound 10 μM, mean ± SEM of four independent experiments; for inhibition at 10 µM: read-out: % inhibition Tau aggregation @ 10 μM, intact E. coli cells, compound 10 μM, mean ± SEM of four independent experiments
T1 construct: expressed in transfected cells; host or cells: Escherichia coli BL21 (DE3) with pTARA and pRKT42
T1 sequence (P10636 1-441 isoform P10636-8): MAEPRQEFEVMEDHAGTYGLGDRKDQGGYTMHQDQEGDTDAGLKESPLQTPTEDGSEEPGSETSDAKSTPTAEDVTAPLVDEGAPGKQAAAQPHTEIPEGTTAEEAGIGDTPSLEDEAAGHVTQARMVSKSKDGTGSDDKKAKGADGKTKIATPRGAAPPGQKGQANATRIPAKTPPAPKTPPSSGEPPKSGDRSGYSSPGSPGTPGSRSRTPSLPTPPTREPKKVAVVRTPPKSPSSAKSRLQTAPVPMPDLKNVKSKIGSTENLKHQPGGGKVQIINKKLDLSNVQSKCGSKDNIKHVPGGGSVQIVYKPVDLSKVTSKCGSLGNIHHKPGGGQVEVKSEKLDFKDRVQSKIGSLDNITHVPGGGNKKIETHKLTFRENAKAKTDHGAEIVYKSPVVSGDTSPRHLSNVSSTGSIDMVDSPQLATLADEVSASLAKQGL
From the text: (§1) As it would have been labor-intensive and expensive to screen such a number of compounds in two separate antiaggregating studies using recombinant Aβ and Tau, we turned our attention to a simple model of protein aggregation, namely, the intact Escherichia coli (E. coli) cells overexpressing Aβ42 and Tau proteins.[28],[29] Building on the fact that inclusion bodies produced by overexpression of these proteins in E. coli mainly consist of fibrillar aggregates, this simple screening method uses bacteria as an in vivo reservoir for tracking the inhibition of amyloid-type protein aggregation in real time, using the amyloid dye thioflavin S (ThS). Of note, this screening has already been used for the evaluation of libraries of antiaggregating compounds.[28]−[38]
E. coli BL21 (DE3) competent cells were transformed with pTARA containing the RNA-polymerase gen of the T7 phage (T7RP) under the control of the promoter PBAD. E. coli BL21 (DE3) with pTARA competent cells were transformed with the pRKT42 vector encoding four repeats of Tau protein in two inserts. For overnight culture preparation, 10 mL of M9 medium containing 0.5% of glucose, 100 μg·mL^–1 ampicillin, and 12.5 μg·mL^–1 chloramphenicol were inoculated with a colony of BL21 (DE3) bearing the plasmids to be expressed at 37 °C. For expression of Tau protein, the required volume of overnight culture to obtain 1:500 dilution was added to fresh M9 minimal medium containing 0.5% of glucose, 50 μg·mL^–1 ampicillin, 12.5 μg·mL^–1 chloramphenicol, and 25 μM ThS. The bacterial culture was grown at 37 °C and 250 rpm. When the cell density reached ABS600 nm= 0.6, an amount of 980 μL of culture was transferred into Eppendorf tubes of 1.5 mL with 10 μL of each compound to be tested in DMSO and 10 μL of arabinose at 25%. The final concentration of the drug was fixed at 10 μM. The samples were grown overnight at 37 °C and 1400 rpm using a thermomixer (Eppendorf, Hamburg, Germany). As the control of maximal amyloid presence, the same amount of DMSO without the drug was added to the sample. In parallel, noninduced samples (in the absence of arabinose) were also prepared and used as controls for the amyloid absence. In addition, the absorbance at 600 nm of the samples was checked to assess the potential intrinsic toxicity of the compounds and to confirm the correct bacterial growth.
(§2) ThS (T1892) and other chemical reagents were purchased from Sigma (St. Louis, MO). ThS stock solution (25 mM) was prepared in double-distilled water purified through a Milli-Q system (Millipore). For the fluorescence assay, the ThS spectra were measured on an AMINCO-Bowman series 2 luminescence spectrophotometer (Aminco-Bowman AB2, SLM Aminco, Rochester, NY) from 460 to 600 nm at 25 °C using an excitation wavelength of 440 nm and slit widths of 4 nm. The emission at 485 nm (fluorescence peak of ThS in the presence of amyloids) was recorded. To normalize the ThS fluorescence as a function of the bacterial concentration, ABS600nm was obtained using a Shimadzu UV-2401 PC UV–Vis spectrophotometer (Shimadzu, Japan). Note that the fluorescence normalization was carried out considering as 100% the ThS fluorescence of the bacterial cells expressing the peptide or protein in the absence of the drug and 0% the ThS fluorescence of the bacterial cells nonexpressing the peptide or protein.

Aβ42 = target: T2, Aβ42 (Homo sapiens, UniProt P05067); experiment: Inhibition of Aβ42 aggregation in intact E. coli cells overexpressing Aβ42 (ThS fluorescence); format: cell-based, Escherichia coli; conditions: for % inhibition Aβ42 aggregation @ 10 μM: intact E. coli cells, compound 10 μM, mean ± SEM of four independent experiments; for inhibition at 10 µM: read-out: % inhibition Aβ42 aggregation @ 10 μM, intact E. coli cells, compound 10 μM, mean ± SEM of four independent experiments
T2 construct: expressed in transfected cells; host or cells: Escherichia coli BL21 (DE3), pET28a
T2 sequence (P05067 672-713 limits assumed): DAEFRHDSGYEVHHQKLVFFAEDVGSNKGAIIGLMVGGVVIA
From the text: as §1
Escherichia coli competent cells BL21 (DE3) were transformed with the pET28a vector (Novagen, Inc., Madison, WI) carrying the DNA sequence of Aβ42. Because of the addition of the initiation codon ATG in front of both genes, the overexpressed peptide contains an additional methionine residue at its N terminus. For overnight culture preparation, an amount of 10 mL of M9 minimal medium containing 50 μg·mL^–1 kanamycin was inoculated with a colony of BL21 (DE3) bearing the plasmid to be expressed at 37 °C. For expression of the Aβ42 peptide, the required volume of overnight culture to obtain 1:500 dilution was added into fresh M9 minimal medium containing 50 μg·mL^–1 kanamycin and 250 μM ThS. The bacterial culture was grown at 37 °C and 250 rpm. When the cell density reached ABS600 nm = 0.6, an amount of 980 μL of culture was transferred into Eppendorf tubes of 1.5 mL with 10 μL of each compound to be tested in DMSO and 10 μL of isopropyl 1-thio-β-D-galactopyranoside (IPTG) at 100 mM. The final concentration of the drug was fixed at 10 μM. The samples were grown overnight at 37 °C and 1400 rpm using a thermomixer (Eppendorf, Hamburg, Germany). As the control of the amyloid presence (maximal amyloid presence), the same amount of DMSO without the drug was added to the sample. In parallel, noninduced samples (in the absence of IPTG) were also prepared and used as controls of the non-amyloid presence. In addition, the absorbance at 600 nm of the samples was checked to assess the potential intrinsic toxicity of the compounds and to confirm the correct bacterial growth.
as §2

[3] = PAMPA-BBB penetration estimation

SMILES | % survival neurotoxicity @ 10 μM [1] | degradation in the PAMPA buffer solution [2] | Papp (PAMPA-BBB assay; PAMPA) | BBB permeability prediction (PAMPA-BBB assay) | CNS (+/-) (PAMPA-BBB assay; [3]) | % inhibition Tau aggregation @ 10 μM (Tau protein) | inhibition at 10 µM (Tau protein) | % inhibition Aβ42 aggregation @ 10 μM (Aβ42) | inhibition at 10 µM (Aβ42) | CNS (+/-) (PAMPA-BBB assay; PAMPA)
CCOC(=O)CN1C(=O)S/C(=C\c2ccc(/C=C3\SC(=O)N(CC(=O)OCC)C3=O)cc2)C1=O [Compound 7, Diethyl 2,2′-((5Z,5′Z)-(1,4-phenylenebis(methanylylidene))bis(2,4-dioxothiazolidin-3-yl-5-ylidene))diacetate] | 90.1 ± 2.1% | < 20% | 11.4 ± 0.49 ×10⁻⁶ cm/s | predicted to passively diffuse across the BBB | CNS + (CNS + (high BBB permeation predicted): Pe (×10-6 cm s-1) > 4.0) | 30.6 ± 3.6% | 30% | 40.7 ± 4.4% | 40% | –
CO/N=C(\C(=O)N[C@@H]1C(=O)N2C(C(=O)O)=C(COC(N)=O)CS[C@H]12)c1ccco1 [Cefuroxime, reference compound] | – | – | – | – | CNS - (CNS - (low BBB permeation predicted): Pe (×10-6 cm s-1) < 2.0) | – | – | – | – | –
CC1(C)c2cc(/C=C3\SC(=O)N(CC(=O)O)C3=O)ccc2-c2ccc(/C=C3\SC(=O)N(CC(=O)O)C3=O)cc21 [Compound 17, 2,2′-((5Z,5′Z)-((9,9-Dimethyl-9H-fluorene-2,7-diyl)bis(methanylylidene))bis(2,4-dioxothiazolidin-3-yl-5-ylidene))diacetic acid] | 89.3 ± 2.3% | – | 0.88 ± 0.2 ×10⁻⁶ cm/s | – | – | – | > 50% | – | > 50% | –
CCOC(=O)CN1C(=O)S/C(=C\c2ccc3[nH]c4ccc(/C=C5\SC(=O)N(CC(=O)OCC)C5=O)cc4c3c2)C1=O [Compound 10, Diethyl 2,2′-((5Z,5′Z)-((9H-carbazole-3,6-diyl)bis(methanylylidene))bis(2,4-dioxothiazolidin-3-yl-5-ylidene))diacetate] | 84.2 ± 6.3% | < 20% | 5.79 ± 1.16 ×10⁻⁶ cm/s | predicted to passively diffuse across the BBB | CNS + (CNS + (high BBB permeation predicted): Pe (×10-6 cm s-1) > 4.0) | 37.7 ± 4.1% | 30 to 40% | 31.9 ± 3.0% | 30 to 40% | –
CCN(C)C(=O)Oc1cccc([C@H](C)N(C)C)c1 [Rivastigmine, reference compound] | – | – | – | – | – | – | – | – | – | CNS + (key: CNS + (high BBB permeation predicted): Pe (×10-6 cm s-1) > 4.0; CNS - (low BBB permeation predicted): Pe (×10-6 cm s-1) < 2.0; CNS +/- (uncertain BBB permeation): Pe (×10-6 cm s-1) from 4.0 to 2.0)
O=C(O)CN1C(=O)S/C(=C\c2ccc3[nH]c4ccc(/C=C5\SC(=O)N(CC(=O)O)C5=O)cc4c3c2)C1=O [Compound 16, 2,2′-((5Z,5′Z)-((9H^–Carbazole-3,6-diyl)bis(methanylylidene))bis(2,4-dioxothiazolidin-3-yl-5-ylidene))diacetic acid] | 90.0 ± 2.8% | – | 0.55 ± 0.12 ×10⁻⁶ cm/s | – | – | 37.9 ± 3.5% | 30 to 40% | 32.1 ± 3.1% | 30 to 40% | –
CCOC(=O)CN1C(=O)S/C(=C\c2ccc(-c3ccc(/C=C4\SC(=O)N(CC(=O)OCC)C4=O)s3)s2)C1=O [Compound 12, Diethyl 2,2′-((5Z,5′Z)-([2,2′-bithiophene]-5,5′-diylbis(methanylylidene))bis(2,4-dioxothiazolidin-3-yl-5-ylidene))diacetate] | 90.2 ± 2.1% | – | – | – | – | – | 9.2 ± 5% | – | 7 ± 3.7% | –
CC1(C)c2cc(/C=C3\SC(=O)NC3=O)ccc2-c2ccc(/C=C3\SC(=O)NC3=O)cc21 [Compound 5, (5Z,5′Z)-5,5′-((9,9-Dimethyl-9H-fluorene-2,7-diyl)bis(methanylylidene))bis(thiazolidine-2,4-dione)] | 67.9 ± 5.4% | – | – | – | – | – | 14.8 ± 3% | – | 23.6 ± 2.6% | –
CN(C)CCN1C(=O)S/C(=C\c2ccc(Cc3ccc(/C=C4\SC(=O)N(CCN(C)C)C4=O)cc3)cc2)C1=O [Compound 21, (5Z,5′Z)-5,5′-((Methylenebis(4,1-phenylene))bis(methanylylidene))bis(3-(2-(dimethylamino)ethyl)thiazolidine-2,4-dione)] | 91.1 ± 1.5% | – | – | – | – | – | 38.7 ± 3.3% | – | 16.1 ± 3.8% | –
CN(C)CCN1C(=O)S/C(=C\c2ccc(/C=C3\SC(=O)N(CCN(C)C)C3=O)cc2)C1=O [Compound 19, (5Z,5′Z)-5,5′-(1,4-Phenylenebis(methanylylidene))bis(3-(2-(dimethylamino)ethyl)thiazolidine-2,4-dione)] | 89.4 ± 2.0% | – | – | – | – | – | 19.4 ± 3.6% | – | 8.1 ± 4.4% | –
